# Test results taken from the supplement of paper PMC9663587.
# Legend:
# Flavopiridol [1] = compound: T1, CN1CC[C@H](c2c(O)cc(O)c3c(=O)cc(-c4ccccc4Cl)oc23)[C@H](O)C1 [Flavopiridol]; assay: GR value, 72 h; higher = faster growth (1 = untreated, <0 = killing);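 note: breast cancer and non-malignant breast epithelial lines, nine half-log doses, viable cells counted by Hoechst and LIVE/DEAD dye imaging versus time-zero plates and DMSO controls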
# Neratinib/HKI272 [2] = compound: T2, CCOc1cc2ncc(C#N)c(Nc3ccc(OCc4ccccn4)c(Cl)c3)c2cc1NC(=O)/C=C/CN(C)C [Neratinib/HKI272]; assay: as above
# [3] = compound: CCc1cnn2c(NCc3ccc[n+]([O-])c3)cc(N3CCCC[C@H]3CCO)nc12; assay: increase in dead-cell fraction, 72 h; higher = more death;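 note: breast cancer cell lines in 384-well plates, stained with Hoechst plus LIVE/DEAD far red dye and imaged, cells above an LDR intensity threshold counted dead, Hoechst-negative corpses included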
# [4] = compound: CC(=O)c1c(C)c2cnc(Nc3ccc(N4CCNCC4)cn3)nc2n(C2CCCC2)c1=O; assay: as above
# [5] = compound: CCN1CCN(Cc2ccc(Nc3ncc(F)c(-c4cc(F)c5nc(C)n(C(C)C)c5c4)n3)nc2)CC1; assay: as above
# Flavopiridol [6] = compound: T1, Flavopiridol; assay: as above
# YKL-5-124 = compound: C=CC(=O)Nc1ccc(C(=O)Nc2[nH]nc3c2CN(C(=O)N[C@H](CN(C)C)c2ccccc2)C3(C)C)cc1 [YKL-5-124]; assay: as above
# LEE011/Ribociclib = compound: CN(C)C(=O)c1cc2cnc(Nc3ccc(N4CCNCC4)cn3)nc2n1C1CCCC1 [LEE011/Ribociclib]; assay: as above
# Neratinib/HKI272 [7] = compound: T2, Neratinib/HKI272; assay: as above
# THZ531 = compound: CN(C)C/C=C/C(=O)Nc1ccc(C(=O)N2CCC[C@@H](Nc3ncc(Cl)c(-c4c[nH]c5ccccc45)n3)C2)cc1 [THZ531]; assay: as above
# THZ1 = compound: CN(C)C/C=C/C(=O)Nc1ccc(C(=O)Nc2cccc(Nc3ncc(Cl)c(-c4c[nH]c5ccccc45)n3)c2)cc1 [THZ1]; assay: as above
# BSJ-03-123 = compound: CC(=O)c1c(C)c2cnc(Nc3ccc(N4CCN(CCOCCOCCOCCNC(=O)COc5cccc6c5C(=O)N(C5CCC(=O)NC5=O)C6=O)CC4)cn3)nc2n(C2CCCC2)c1=O [BSJ-03-123]; assay: as above
cell line,measurement,setting,value
CAL51,GR value,Flavopiridol [1]; 0.0001 µM,0.98 GR
same,GR value,Flavopiridol [1]; 0.0003162 µM,0.944 GR
same,GR value,Flavopiridol [1]; 0.001 µM,0.962 GR
same,GR value,Flavopiridol [1]; 0.003162 µM,0.909 GR
same,GR value,Flavopiridol [1]; 0.01 µM,0.842 GR
same,GR value,Flavopiridol [1]; 0.03162 µM,0.887 GR
same,GR value,Flavopiridol [1]; 0.1 µM,0.708 GR
same,GR value,Flavopiridol [1]; 0.3162 µM,0.353 GR
same,GR value,Flavopiridol [1]; 1 µM,-0.099 GR
same,GR value,Neratinib/HKI272 [2]; 0.0003162 µM,0.983 GR
same,GR value,Neratinib/HKI272 [2]; 0.001 µM,1 GR
same,GR value,Neratinib/HKI272 [2]; 0.003162 µM,0.938 GR
same,GR value,Neratinib/HKI272 [2]; 0.01 µM,1.01 GR
same,GR value,Neratinib/HKI272 [2]; 0.03162 µM,1 GR
same,GR value,Neratinib/HKI272 [2]; 0.1 µM,0.975 GR
same,GR value,Neratinib/HKI272 [2]; 0.3162 µM,0.94 GR
same,GR value,Neratinib/HKI272 [2]; 1 µM,0.833 GR
same,GR value,Neratinib/HKI272 [2]; 3.162 µM,0.293 GR
same,increase in dead-cell fraction,[3]; 0.0001 µM,-0.0015
same,increase in dead-cell fraction,[3]; 0.0003162 µM,-0.0015
same,increase in dead-cell fraction,[3]; 0.001 µM,0.0029
same,increase in dead-cell fraction,[3]; 0.003162 µM,0.0026
same,increase in dead-cell fraction,[3]; 0.01 µM,-0.0001
same,increase in dead-cell fraction,[3]; 0.03162 µM,0.437
same,increase in dead-cell fraction,[3]; 0.1 µM,0.584
same,increase in dead-cell fraction,[3]; 0.3162 µM,0.58
same,increase in dead-cell fraction,[3]; 1 µM,0.532
same,increase in dead-cell fraction,[4]; 0.0003162 µM,-0.0042
same,increase in dead-cell fraction,[4]; 0.001 µM,-0.0013
same,increase in dead-cell fraction,[4]; 0.003162 µM,-0.0116
same,increase in dead-cell fraction,[4]; 0.01 µM,-0.0114
same,increase in dead-cell fraction,[4]; 0.03162 µM,-0.0305
same,increase in dead-cell fraction,[4]; 0.1 µM,-0.0374
same,increase in dead-cell fraction,[4]; 0.3162 µM,-0.0371
same,increase in dead-cell fraction,[4]; 1 µM,-0.036
same,increase in dead-cell fraction,[4]; 3.162 µM,-0.029
same,increase in dead-cell fraction,[5]; 0.001 µM,-0.009
same,increase in dead-cell fraction,[5]; 0.003162 µM,-0.0216
same,increase in dead-cell fraction,[5]; 0.01 µM,-0.032
same,increase in dead-cell fraction,[5]; 0.03162 µM,-0.0343
same,increase in dead-cell fraction,[5]; 0.1 µM,-0.0329
same,increase in dead-cell fraction,[5]; 0.3162 µM,-0.0295
same,increase in dead-cell fraction,[5]; 1 µM,-0.0018
same,increase in dead-cell fraction,[5]; 3.162 µM,0.239
same,increase in dead-cell fraction,[5]; 10 µM,0.727
same,increase in dead-cell fraction,Flavopiridol [6]; 0.0001 µM,-0.0023
same,increase in dead-cell fraction,Flavopiridol [6]; 0.0003162 µM,0.0009
same,increase in dead-cell fraction,Flavopiridol [6]; 0.001 µM,-0.0005
same,increase in dead-cell fraction,Flavopiridol [6]; 0.003162 µM,0.004
same,increase in dead-cell fraction,Flavopiridol [6]; 0.01 µM,0.0023
same,increase in dead-cell fraction,Flavopiridol [6]; 0.03162 µM,0.006
same,increase in dead-cell fraction,Flavopiridol [6]; 0.1 µM,0.011
same,increase in dead-cell fraction,Flavopiridol [6]; 0.3162 µM,0.068
same,increase in dead-cell fraction,Flavopiridol [6]; 1 µM,0.234
same,increase in dead-cell fraction,YKL-5-124; 0.001 µM,0.0123
same,increase in dead-cell fraction,YKL-5-124; 0.003162 µM,0.0229
same,increase in dead-cell fraction,YKL-5-124; 0.01 µM,0.0534
same,increase in dead-cell fraction,YKL-5-124; 0.03162 µM,0.0508
same,increase in dead-cell fraction,YKL-5-124; 0.1 µM,0.0599
same,increase in dead-cell fraction,YKL-5-124; 0.3162 µM,0.0693
same,increase in dead-cell fraction,YKL-5-124; 1 µM,0.0723
same,increase in dead-cell fraction,YKL-5-124; 3.162 µM,0.134
same,increase in dead-cell fraction,YKL-5-124; 10 µM,0.192
same,increase in dead-cell fraction,LEE011/Ribociclib; 0.001 µM,-0.0032
same,increase in dead-cell fraction,LEE011/Ribociclib; 0.003162 µM,-0.0038
same,increase in dead-cell fraction,LEE011/Ribociclib; 0.01 µM,-0.0003
same,increase in dead-cell fraction,LEE011/Ribociclib; 0.03162 µM,0.0052
same,increase in dead-cell fraction,LEE011/Ribociclib; 0.1 µM,0.0083
same,increase in dead-cell fraction,LEE011/Ribociclib; 0.3162 µM,0.0065
same,increase in dead-cell fraction,LEE011/Ribociclib; 1 µM,0.0053
same,increase in dead-cell fraction,LEE011/Ribociclib; 3.162 µM,0.0086
same,increase in dead-cell fraction,LEE011/Ribociclib; 10 µM,0.0229
same,increase in dead-cell fraction,Neratinib/HKI272 [7]; 0.0003162 µM,0.0033
same,increase in dead-cell fraction,Neratinib/HKI272 [7]; 0.001 µM,-0.0017
same,increase in dead-cell fraction,Neratinib/HKI272 [7]; 0.003162 µM,0.0074
same,increase in dead-cell fraction,Neratinib/HKI272 [7]; 0.01 µM,0.0041
same,increase in dead-cell fraction,Neratinib/HKI272 [7]; 0.03162 µM,0.0026
same,increase in dead-cell fraction,Neratinib/HKI272 [7]; 0.1 µM,0.0003
same,increase in dead-cell fraction,Neratinib/HKI272 [7]; 0.3162 µM,-0.0046
same,increase in dead-cell fraction,Neratinib/HKI272 [7]; 1 µM,-0.0094
same,increase in dead-cell fraction,Neratinib/HKI272 [7]; 3.162 µM,0.0911
same,increase in dead-cell fraction,THZ531; 0.0001 µM,0.0035
same,increase in dead-cell fraction,THZ531; 0.0003162 µM,0.0008
same,increase in dead-cell fraction,THZ531; 0.001 µM,0.0008
same,increase in dead-cell fraction,THZ531; 0.003162 µM,-0.0007
same,increase in dead-cell fraction,THZ531; 0.01 µM,-0.0017
same,increase in dead-cell fraction,THZ531; 0.03162 µM,0.0021
same,increase in dead-cell fraction,THZ531; 0.1 µM,0.0037
same,increase in dead-cell fraction,THZ531; 0.3162 µM,0.019
same,increase in dead-cell fraction,THZ531; 1 µM,0.0391
same,increase in dead-cell fraction,THZ1; 0.0001 µM,-0.0022
same,increase in dead-cell fraction,THZ1; 0.0003162 µM,-0.0006
same,increase in dead-cell fraction,THZ1; 0.001 µM,-0.0009
same,increase in dead-cell fraction,THZ1; 0.003162 µM,0.0009
same,increase in dead-cell fraction,THZ1; 0.01 µM,0.0002
same,increase in dead-cell fraction,THZ1; 0.03162 µM,0.0038
same,increase in dead-cell fraction,THZ1; 0.1 µM,0.0149
same,increase in dead-cell fraction,THZ1; 0.3162 µM,0.046
same,increase in dead-cell fraction,THZ1; 1 µM,0.117
same,increase in dead-cell fraction,BSJ-03-123; 0.001 µM,-0.0039
same,increase in dead-cell fraction,BSJ-03-123; 0.003162 µM,-0.0056
same,increase in dead-cell fraction,BSJ-03-123; 0.01 µM,-0.004
same,increase in dead-cell fraction,BSJ-03-123; 0.03162 µM,-0.0021
same,increase in dead-cell fraction,BSJ-03-123; 0.1 µM,-0.0017
same,increase in dead-cell fraction,BSJ-03-123; 0.3162 µM,-0.0037
same,increase in dead-cell fraction,BSJ-03-123; 1 µM,0.0033
same,increase in dead-cell fraction,BSJ-03-123; 3.162 µM,0.0021
same,increase in dead-cell fraction,BSJ-03-123; 10 µM,0.128
